Measurements reported in patent publication US4287206A, “Halogen derivatives of 8-hydroxycarboxylic acids; the processes for their preparation and medicaments in which they are present” (priority 1978, dated 1981).
Where two headings read alike, the source gives them in different places.

Assays:
[1] = tested on: mice; assay: Sleep induced by pentobarbital in mice; type: in vivo; conditions: pentobarbital 50 mg.kg^-1 i.p.
Procedure: (b) Absence of modification of the effects of pentobarbital
At time 0, the mice receive, by intraperitoneal or oral administration, distilled water or the medicament according to the invention, obtained in accordance with Example I. After 30 minutes, they receive pentobarbital (50 mg.kg^-1) by intraperitoneal administration.

[2] = tested on: mice; assay: Anti-reserpine activity in mice (reserpine hypothermia); type: in vivo; conditions: reserpine 2.5 mg.kg^-1 i.p. 4 h before
Procedure: Anti-reserpine activity in mice
At time 0, the mice receive reserpine (2.5 mg.kg^-1) by intraperitoneal administration.
After 4 hours, when the hypothermia is significant (30 to 31°C.), the substance to be studied is administered intraperitoneally or orally. The rectal temperature is measured, using a probe, carrying a thermoelectric couple, inserted to a constant depth, every 30 minutes for 2 hours.

[3] = Determination of the acute toxicity to mice (BEHRENS and KARBER); conditions: mouse, in vivo
Procedure: All the experiments reported below were carried out on male rats having a weight of between 170 and 220 g (Wistar AF strain) and male mice having a weight of between 18 and 23 g (Swiss NMRI strain), unless otherwise stated in the following text.
Determination of the acute toxicity to mice
Method used: BEHRENS and KARBER

With `CC1CC(c2ccc(Cl)cc2)C(c2ccccc2)C(=O)O1` (stereo not drawn) [Example I, trans-4-(4'-chlorophenyl)-6-methyl-3-phenyl-3,4,5,6-tetrahydropyrone-2] the “% of mice which have slept” value ([1]; 16 mg/kg intraperitoneal) was 83%, the “Time in minutes for induction of sleep” value ([1]; 16 mg/kg intraperitoneal) was 4.5 min and the “Time in minutes of sleep” value ([1]; 16 mg/kg intraperitoneal) was 26 ± 7 min. The “% of mice which have slept” value ([1]; 16 mg/kg oral) was 100%, the “Time in minutes for induction of sleep” value ([1]; 16 mg/kg oral) was 4 min and the “Time in minutes of sleep” value ([1]; 16 mg/kg oral) was 41 ± 7 min. The “% of mice which have slept” value ([1]; 32 mg/kg intraperitoneal) was 92%, the “Time in minutes for induction of sleep” value ([1]; 32 mg/kg intraperitoneal) was 4.5 min and the “Time in minutes of sleep” value ([1]; 32 mg/kg intraperitoneal) was 27 ± 3 min. For the same compound, the “% of mice which have slept” value ([1]; 32 mg/kg oral) was 100%, the “Time in minutes for induction of sleep” value ([1]; 32 mg/kg oral) was 4 min and the “Time in minutes of sleep” value ([1]; 32 mg/kg oral) was 49 ± 4 min. For the same compound, the “% of mice which have slept” value ([1]; 64 mg/kg intraperitoneal) was 100%, the “Time in minutes for induction of sleep” value ([1]; 64 mg/kg intraperitoneal) was 4 min and the “Time in minutes of sleep” value ([1]; 64 mg/kg intraperitoneal) was 30 ± 9 min. For the same compound, the “% of mice which have slept” value ([1]; 64 mg/kg oral) was 100%, the “Time in minutes for induction of sleep” value ([1]; 64 mg/kg oral) was 5 min and the “Time in minutes of sleep” value ([1]; 64 mg/kg oral) was 29 ± 8 min. The “% of mice which have slept” value ([1]; 128 mg/kg intraperitoneal) was 83%, the “Time in minutes for induction of sleep” value ([1]; 128 mg/kg intraperitoneal) was 6 min and the “Time in minutes of sleep” value ([1]; 128 mg/kg intraperitoneal) was 25 ± 5 min. For the same compound, the “% of mice which have slept” value ([1]; 128 mg/kg oral) was 100%, the “Time in minutes for induction of sleep” value ([1]; 128 mg/kg oral) was 4 min and the “Time in minutes of sleep” value ([1]; 128 mg/kg oral) was 38 ± 7 min. For the same compound, the “Rectal temperatures °C. ± SD” value ([2]; Table IIa, 4 mg/kg oral, 30 min) was 30.6 ± 0.39 °C, the “Rectal temperatures °C. ± SD” value ([2]; Table IIa, 4 mg/kg oral, 60 min) was 30.6 ± 0.45 °C and the “Rectal temperatures °C. ± SD” value ([2]; Table IIa, 4 mg/kg oral, 90 min) was 30.7 ± 0.59 °C. The “Rectal temperatures °C. ± SD” value ([2]; Table IIa, 4 mg/kg oral, 120 min) was 30.4 ± 0.67 °C, the “Rectal temperatures °C. ± SD” value ([2]; Table IIa, 8 mg/kg oral, 30 min) was 31.1 ± 0.36 °C and the “Rectal temperatures °C. ± SD” value ([2]; Table IIa, 8 mg/kg oral, 60 min) was 31.4 ± 0.56 °C. For the same compound, the “Rectal temperatures °C. ± SD” value ([2]; Table IIa, 8 mg/kg oral, 90 min) was 31.5 ± 0.57 °C, the “Rectal temperatures °C. ± SD” value ([2]; Table IIa, 8 mg/kg oral, 120 min) was 31.3 ± 0.56 °C and the “Rectal temperatures °C. ± SD” value ([2]; Table IIa, 16 mg/kg oral, 30 min) was 31.4 ± 0.41 °C. For the same compound, the “Rectal temperatures °C. ± SD” value ([2]; Table IIa, 16 mg/kg oral, 60 min) was 32.6 ± 0.56 °C, the “Rectal temperatures °C. ± SD” value ([2]; Table IIa, 16 mg/kg oral, 90 min) was 32.8 ± 0.53 °C and the “Rectal temperatures °C. ± SD” value ([2]; Table IIa, 16 mg/kg oral, 120 min) was 32.8 ± 0.45 °C. The “Rectal temperatures °C. ± SD” value ([2]; Table IIa, 32 mg/kg oral, 30 min) was 31.4 ± 0.31 °C, the “Rectal temperatures °C. ± SD” value ([2]; Table IIa, 32 mg/kg oral, 60 min) was 32.6 ± 0.44 °C and the “Rectal temperatures °C. ± SD” value ([2]; Table IIa, 32 mg/kg oral, 90 min) was 32.9 ± 0.41 °C. The “Rectal temperatures °C. ± SD” value ([2]; Table IIa, 32 mg/kg oral, 120 min) was 32.8 ± 0.38 °C, the “Rectal temperatures °C. ± SD” value ([2]; Table IIa, 64 mg/kg oral, 30 min) was 33.8 ± 0.58 °C and the “Rectal temperatures °C. ± SD” value ([2]; Table IIa, 64 mg/kg oral, 60 min) was 34.5 ± 0.33 °C. For the same compound, the “Rectal temperatures °C. ± SD” value ([2]; Table IIa, 64 mg/kg oral, 90 min) was 34.4 ± 0.39 °C, the “Rectal temperatures °C. ± SD” value ([2]; Table IIa, 64 mg/kg oral, 120 min) was 34.4 ± 0.35 °C and the “Rectal temperatures °C. ± SD” value ([2]; Table IIa, 128 mg/kg oral, 30 min) was 33.1 ± 0.56 °C. For the same compound, the “Rectal temperatures °C. ± SD” value ([2]; Table IIa, 128 mg/kg oral, 60 min) was 34.1 ± 0.56 °C, the “Rectal temperatures °C. ± SD” value ([2]; Table IIa, 128 mg/kg oral, 90 min) was 34.3 ± 0.58 °C and the “Rectal temperatures °C. ± SD” value ([2]; Table IIa, 128 mg/kg oral, 120 min) was 34.2 ± 0.53 °C. For the same compound, the “Rectal temperatures °C. ± SD” value ([2]; Table IIa, 256 mg/kg oral, 30 min) was 33.5 ± 0.47 °C, the “Rectal temperatures °C. ± SD” value ([2]; Table IIa, 256 mg/kg oral, 60 min) was 35.2 ± 0.15 °C and the “Rectal temperatures °C. ± SD” value ([2]; Table IIa, 256 mg/kg oral, 90 min) was 35.3 ± 0.34 °C. The “Rectal temperatures °C. ± SD” value ([2]; Table IIa, 256 mg/kg oral, 120 min) was 35.1 ± 0.33 °C, the “Rectal temperatures °C. ± SD” value ([2]; 4 mg/kg intraperitoneal, 30 min) was 32.7 ± 0.56 °C and the “Rectal temperatures °C. ± SD” value ([2]; 4 mg/kg intraperitoneal, 60 min) was 33.7 ± 0.47 °C. For the same compound, the “Rectal temperatures °C. ± SD” value ([2]; 4 mg/kg intraperitoneal, 90 min) was 33.1 ± 0.39 °C, the “Rectal temperatures °C. ± SD” value ([2]; 4 mg/kg intraperitoneal, 120 min) was 32.2 ± 0.46 °C and the “Rectal temperatures °C. ± SD” value ([2]; 8 mg/kg intraperitoneal, 30 min) was 33.1 ± 0.32 °C. For the same compound, the “Rectal temperatures °C. ± SD” value ([2]; 8 mg/kg intraperitoneal, 60 min) was 34.1 ± 0.24 °C, the “Rectal temperatures °C. ± SD” value ([2]; 8 mg/kg intraperitoneal, 90 min) was 34.0 ± 0.38 °C and the “Rectal temperatures °C. ± SD” value ([2]; 8 mg/kg intraperitoneal, 120 min) was 33.6 ± 0.49 °C. The “Rectal temperatures °C. ± SD” value ([2]; 16 mg/kg intraperitoneal, 30 min) was 35.3 ± 0.51 °C, the “Rectal temperatures °C. ± SD” value ([2]; 16 mg/kg intraperitoneal, 60 min) was 35.7 ± 0.34 °C and the “Rectal temperatures °C. ± SD” value ([2]; 16 mg/kg intraperitoneal, 90 min) was 35.3 ± 0.37 °C. For the same compound, the “Rectal temperatures °C. ± SD” value ([2]; 16 mg/kg intraperitoneal, 120 min) was 35.0 ± 0.44 °C, the “Rectal temperatures °C. ± SD” value ([2]; 32 mg/kg intraperitoneal, 30 min) was 34.8 ± 0.48 °C and the “Rectal temperatures °C. ± SD” value ([2]; 32 mg/kg intraperitoneal, 60 min) was 36.2 ± 0.38 °C. For the same compound, the “Rectal temperatures °C. ± SD” value ([2]; 32 mg/kg intraperitoneal, 90 min) was 35.6 ± 0.38 °C, the “Rectal temperatures °C. ± SD” value ([2]; 32 mg/kg intraperitoneal, 120 min) was 35.7 ± 0.37 °C and the LD50 ([3]; ip, intraperitoneal, read-out: LD50 (intraperitoneal administration)) was 520 mg/kg. For the same compound, the LD50 ([3]; oral, read-out: LD50 (oral administration)) was 1050 mg/kg.
